In patent US8846951B2 (AbbVie Inc., priority 2009, dated 2014):
pEC50: −log10 of the molar value. Like-named read-outs stand apart in the source and are kept apart here.

Legend:
5HT2B receptors = molecular target: T1, 5HT2B receptors (Homo sapiens, UniProt P41595); assay: Human 5-HT2B functional high throughput screening assay in CHO-K1 cells (calcium flux); type: cell-based; details: for pEC50: CHO-K1 cells, calcium flux
T1 construct: expressed in transfected cells; host or cells: CHO-K1 cells
Description: (§1) (iii) Human 5-HT2C and 5-HT2B Functional High Throughput Screening Assays in CHO-K1 Cells
(§2) CHO-K1 cells over-expressing 5HT2C or 5HT2B receptors were grown in 1272 cm^2 flasks to 70-80% confluency in UltraCHO media (Lonza, Walkersville, Md.) supplemented with 1% dialyzed fetal bovine serum (FBS), 250 μg/mL zeocin, 100 U/mL penicillin and 100 μg/mL streptomycin, and 400 μg/mL geneticin. The cells were dissociated from the flasks using 0.05% trypsin, resuspended in Recovery™ cell culture freezing medium (Invitrogen, Carlsbad, Calif.) and stored in liquid nitrogen until use. The calcium flux experiments were done using frozen cells. The cells were diluted in media containing 1% dialyzed FBS and 100 U/mL penicillin and 100 μg/mL streptomycin and plated into 384-well poly-D-Lysine coated plates (15,000 cells/well). Then the plates were incubated overnight in a cell incubator at 37° C., 5% CO2. On the next day, the growth media was replaced with media without FBS and further incubated overnight. On day three, the changes in intracellular Ca^2+ were determined using calcium sensitive fluorescent dye, Ca4 (MDS Analytical Technologies, Sunnyvale, Calif.) by loading 15 μL of diluted dye in Hank's Balanced Salt Solution and 20 mM Hepes buffer (pH 7.4) with final concentration of 2.5 mM probenecid into the cells containing media. Then the cells were incubated at room temperature for 60 minutes in dark.
(§3) After incubation, the cell plates were transferred to FLIPR™ (MDS) and their fluorescence measurements were read at an excitation wavelength of 480 nm and an emission wavelength of 530 nm at 25° C. The baseline fluorescence was measured for the first 10 seconds and then 15 μL of 4× concentration of serotonin/test compound was added to the cells. The fluorescence intensity was captured every second for the first 1 minute followed by every 5 seconds for an additional 2 minutes. The increase in fluorescent response by a test compound was normalized to the response of serotonin and used to determine agonist activity. The concentration response of compounds was done from a starting concentration of 10 μM, 1:10 dilution across 6 wells with a final dimethyl sulfoxide concentration of 0.2% and was fitted using a 4-parameter logistic equation. The concentration at which a compound exerts half its maximal effect was named as ‘effective concentration 50’ or ‘EC50’. Emax is the maximum functional response or efficacy expressed as a percentage relative to the effect of serotonin.

5HT2C receptors = molecular target: T2, 5HT2C receptors (Homo sapiens, UniProt P28335); assay: Human 5-HT2C functional high throughput screening assay in CHO-K1 cells (calcium flux); type: cell-based; set-up: expressed in transfected cells; host or cells: CHO-K1 cells; details: for pEC50: CHO-K1 cells, calcium flux; for Emax: 5-HT2C, maximum functional response as percentage relative to the effect of serotonin
T2 sequence (P28335 33-458): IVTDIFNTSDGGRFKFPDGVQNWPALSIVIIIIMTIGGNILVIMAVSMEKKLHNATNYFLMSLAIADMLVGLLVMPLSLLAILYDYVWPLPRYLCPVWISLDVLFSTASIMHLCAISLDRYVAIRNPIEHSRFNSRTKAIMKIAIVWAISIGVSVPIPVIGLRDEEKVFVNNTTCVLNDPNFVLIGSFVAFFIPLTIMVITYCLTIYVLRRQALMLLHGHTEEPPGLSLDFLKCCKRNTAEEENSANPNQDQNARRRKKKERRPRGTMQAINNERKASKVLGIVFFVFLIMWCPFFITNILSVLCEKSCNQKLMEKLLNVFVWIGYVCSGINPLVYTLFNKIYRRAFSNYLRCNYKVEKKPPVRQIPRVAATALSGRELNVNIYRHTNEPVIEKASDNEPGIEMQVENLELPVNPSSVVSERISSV
Description: as §1, §2, §3

[1] = 5-HT2B agonist activity, read-out: EC50
[2] = 5-HT2B, maximum functional response as percentage relative to the effect of serotonin
[3] = 5-HT2C agonist activity, read-out: EC50

T1 sequence (P41595 whole entry): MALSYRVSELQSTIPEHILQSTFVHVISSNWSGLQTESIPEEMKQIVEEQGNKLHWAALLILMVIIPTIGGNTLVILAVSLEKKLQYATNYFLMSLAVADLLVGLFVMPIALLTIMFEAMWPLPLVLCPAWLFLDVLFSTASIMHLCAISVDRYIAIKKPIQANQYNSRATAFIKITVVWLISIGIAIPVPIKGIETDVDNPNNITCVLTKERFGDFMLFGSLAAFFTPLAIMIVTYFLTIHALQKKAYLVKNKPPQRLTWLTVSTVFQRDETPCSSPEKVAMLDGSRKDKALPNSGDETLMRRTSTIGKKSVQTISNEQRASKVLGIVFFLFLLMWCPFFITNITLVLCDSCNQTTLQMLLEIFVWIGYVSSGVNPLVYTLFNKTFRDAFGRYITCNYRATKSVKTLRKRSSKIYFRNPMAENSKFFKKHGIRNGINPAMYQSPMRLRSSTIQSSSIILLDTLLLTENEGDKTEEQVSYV

CN1C[C@H]2CNC(=O)c3cc(C4CCOCC4)ccc3[C@@H]2C1 (relative stereo) [Example 267, Trans-2-methyl-8-(tetrahydro-2H-pyran-4-yl)-1,2,3,3a,4,5-hexahydrobenzo[c]pyrrolo[3,4-e]azepin-6(10bH)-one]
pEC50 (5HT2B receptors; [1]): < 5.00 | Emax (5HT2B receptors; [2]): inactive | pEC50 (5HT2C receptors; [3]): 6.00 | Emax (5HT2C receptors; CHO-K1, read-out: Emax): 90%

CN1C[C@@H]2CCCc3ccccc3[C@@H]2C1 (relative stereo) [Example 269, Cis-2-methyl-1,2,3,3a,4,5,6,10b-octahydrobenzo[3,4]cyclohepta[1,2-c]pyrrole]
Emax (5HT2B receptors; CHO-K1): 50% | pEC50 (5HT2B receptors; EC50, 5-HT2B agonist activity): 6.10 | Emax (5HT2C receptors; CHO-K1): > 120% | pEC50 (5HT2C receptors; EC50, 5-HT2C agonist activity): 7.00

CN1C[C@@H]2CNC(=O)c3cc(OCc4cccc(F)c4F)ccc3[C@H]2C1 [Example 212, (3aS,10bS)-8-(2,3-Difluorobenzyloxy)-2-methyl-1,2,3,3a,4,5-hexahydrobenzo[e]pyrrolo[3,4-c]azepin-6(10bH)-one]
pEC50 (5HT2B receptors; [1]): < 5.00 | Emax (5HT2B receptors; [2]): inactive | pEC50 (5HT2C receptors; [3]): 9.05 | Emax (5HT2C receptors; CHO-K1, read-out: Emax): > 120%

CC(C)CCOc1ccc2c(c1)C(=O)NC[C@@H]1CNC[C@@H]21 (relative stereo) [Example 169, Trans-8-(isopentyloxy)-1,2,3,3a,4,5-hexahydrobenzo[e]pyrrolo[3,4-c]azepin-6(10bH)-one]
Emax (5HT2B receptors; [2]): inactive | pEC50 (5HT2B receptors; EC50, 5-HT2B agonist activity): < 5.00 | Emax (5HT2C receptors; CHO-K1): > 120% | pEC50 (5HT2C receptors; EC50, 5-HT2C agonist activity): 9.00

C[C@@H](O)c1cccc(-c2ccc3c(c2)C(=O)NC[C@H]2CN(C)C[C@H]32)c1 [Example 294, (3aS,10bS)-8-{3-[(1R)-1-hydroxyethyl]phenyl}-2-methyl-2,3,3a,4,5,10b-hexahydropyrrolo[3,4-d][2]benzazepin-6(1H)-one]
pEC50 (5HT2B receptors; [1]): < 5.00 | Emax (5HT2B receptors; [2]): inactive | Emax (5HT2C receptors): 100%

O=C1NC[C@@H]2CNC[C@H]2c2ccc(OCC3CCCCC3)cc21 (relative stereo) [Example 167, Trans-8-(cyclohexylmethoxy)-1,2,3,3a,4,5-hexahydrobenzo[e]pyrrolo[3,4-c]azepin-6(10bH)-one]
Emax (5HT2B receptors; [2]): inactive | pEC50 (5HT2B receptors; EC50, 5-HT2B agonist activity): < 5.00 | Emax (5HT2C receptors; CHO-K1): > 120% | pEC50 (5HT2C receptors; EC50, 5-HT2C agonist activity): 8.30

COc1cccc(-c2ccc3c(c2)C(=O)NC[C@@H]2CN(C)C[C@@H]32)c1 (relative stereo) [Example 133, Trans-8-(3-methoxyphenyl)-2-methyl-1,2,3,3a,4,5-hexahydrobenzo[e]pyrrolo[3,4-c]azepin-6(10bH)-one]
pEC50 (5HT2B receptors; [1]): < 5.00 | Emax (5HT2B receptors; [2]): inactive | Emax (5HT2C receptors; CHO-K1, read-out: Emax): > 120%

O=C1NC[C@@H]2CNC[C@H]2c2ccc(OCCc3ccccc3)cc21 (relative stereo) [Example 123, Trans-8-phenethoxy-1,2,3,3a,4,5-hexahydrobenzo[e]pyrrolo[3,4-c]azepin-6(10bH)-one]
Emax (5HT2B receptors; [2]): inactive | pEC50 (5HT2B receptors; EC50, 5-HT2B agonist activity): < 5.00 | Emax (5HT2C receptors; CHO-K1): 120% | pEC50 (5HT2C receptors; EC50, 5-HT2C agonist activity): 8.00

O=S(=O)(c1ccc(Cl)s1)N1Cc2cccnc2[C@@H]2CNC[C@H]2C1 (relative stereo) [Example 339, Trans-6-[(5-chloro-2-thienyl)sulfonyl]-5,6,7,7a,8,9,10,10a-octahydropyrido[3,2-c]pyrrolo[3,4-e]azepine]
Emax (5HT2B receptors; [2]): inactive | pEC50 (5HT2B receptors; EC50, 5-HT2B agonist activity): < 5.00 | Emax (5HT2C receptors; CHO-K1): 110% | pEC50 (5HT2C receptors; EC50, 5-HT2C agonist activity): 7.52

O=S(=O)(c1ccc(OC(F)(F)F)cc1)N1Cc2cccnc2[C@@H]2CNC[C@H]2C1 (relative stereo) [Example 349, Trans-6-{[4-(trifluoromethoxy)phenyl]sulfonyl}-5,6,7,7a,8,9,10,10a-octahydropyrido[3,2-c]pyrrolo[3,4-e]azepine]
pEC50 (5HT2B receptors; [1]): < 5.00 | Emax (5HT2B receptors; [2]): inactive | pEC50 (5HT2C receptors; [3]): 6.70 | Emax (5HT2C receptors; CHO-K1, read-out: Emax): 90%

COc1ccc2c(c1)OCC[C@H]1CNC[C@H]21 (relative stereo) [Example 280, Trans-8-methoxy-2,3,3a,4,5,10b-hexahydro-1H-[1]benzoxepino[4,5-c]pyrrole]
Emax (5HT2B receptors; CHO-K1): 60% | pEC50 (5HT2B receptors; EC50, 5-HT2B agonist activity): 7.00 | Emax (5HT2C receptors; CHO-K1): 100% | pEC50 (5HT2C receptors; EC50, 5-HT2C agonist activity): 7.05

CNC(=O)c1cccc(-c2ccc3c(c2)C(=O)NC[C@@H]2CNC[C@@H]32)c1 (relative stereo) [Example 381, N-Methyl-3-[trans-6-oxo-1,2,3,3a,4,5,6,10b-octahydropyrrolo[3,4-d][2]benzazepin-8-yl]benzamide]
pEC50 (5HT2B receptors; [1]): < 5.00 | Emax (5HT2B receptors; [2]): inactive | pEC50 (5HT2C receptors; [3]): 8.00 | Emax (5HT2C receptors; CHO-K1, read-out: Emax): 105%

CC(=O)N1CC[C@@H]2CNC[C@H]2c2ccccc21 (relative stereo) [Example 328, 1-[Trans-2,3,3a,4,5,10b-hexahydropyrrolo[3,4-d][1]benzazepin-6(1H)-yl]ethanone]
pEC50 (5HT2B receptors; [1]): 5.40 | Emax (5HT2B receptors; CHO-K1): 60% | pEC50 (5HT2C receptors; [3]): 6.05 | Emax (5HT2C receptors; CHO-K1): 90%

O=C1NC[C@@H]2CN(Cc3ccccc3)C[C@H]2c2cc3ccccc3cc21 (relative stereo) [Example 256, Trans-2-benzyl-1,2,3,3a,4,5-hexahydronaphtho[2,3-c]pyrrolo[3,4-e]azepin-6(12bH)-one]
pEC50 (5HT2B receptors; [1]): < 5.00 | Emax (5HT2B receptors; [2]): inactive | pEC50 (5HT2C receptors; [3]): 7.00 | Emax (5HT2C receptors; CHO-K1, read-out: Emax): 90%

CN1C[C@H]2CNC(=O)c3cc(-c4ccc(F)cc4)ccc3[C@@H]2C1 [Example 116, (3aR,10bR)-8-(4-Fluorophenyl)-2-methyl-1,2,3,3a,4,5-hexahydrobenzo[e]pyrrolo[3,4-c]azepin-6(10bH)-one]
pEC50 (5HT2B receptors; [1]): < 5.00 | Emax (5HT2B receptors; [2]): inactive | Emax (5HT2C receptors; CHO-K1, read-out: Emax): 90%

CN1C[C@H]2CNC(=O)c3cc(-c4cccc(OC(F)(F)F)c4)ccc3[C@@H]2C1 (relative stereo) [Example 132, Trans-2-methyl-8-(3-(trifluoromethoxy)phenyl)-1,2,3,3a,4,5-hexahydrobenzo[e]pyrrolo[3,4-c]azepin-6(10bH)-one]
pEC50 (5HT2B receptors; [1]): < 5.00 | Emax (5HT2B receptors; [2]): inactive | pEC50 (5HT2C receptors; [3]): 7.70 | Emax (5HT2C receptors; CHO-K1, read-out: Emax): > 120%

O=C1NC[C@@H]2CN(Cc3ccccc3)C[C@H]2c2cccc(OC(F)(F)F)c21 (relative stereo) [Example 102, Trans-2-benzyl-7-(trifluoromethoxy)-1,2,3,3a,4,5-hexahydrobenzo[c]pyrrolo[3,4-e]azepin-6(10bH)-one]
pEC50 (5HT2B receptors; [1]): < 5.00 | Emax (5HT2B receptors; [2]): inactive | pEC50 (5HT2C receptors; [3]): 7.00 | Emax (5HT2C receptors; CHO-K1, read-out: Emax): > 120%

O=S(=O)(c1ccc(C(F)(F)F)cc1)N1Cc2cccnc2[C@@H]2CNC[C@H]2C1 (relative stereo) [Example 347, Trans-6-{[4-(trifluoromethyl)phenyl]sulfonyl}-5,6,7,7a,8,9,10,10a-octahydropyrido[3,2-c]pyrrolo[3,4-e]azepine]
pEC50 (5HT2B receptors; [1]): < 5.00 | Emax (5HT2B receptors; [2]): inactive | pEC50 (5HT2C receptors; [3]): 7.05 | Emax (5HT2C receptors; CHO-K1, read-out: Emax): 90%

CN1C[C@H]2CNC(=O)c3cc(-c4ccsc4Cl)ccc3[C@@H]2C1 (relative stereo) [Example 387, Trans-8-(2-chloro-3-thienyl)-2-methyl-2,3,3a,4,5,10b-hexahydropyrrolo[3,4-d][2]benzazepin-6(1H)-one]
pEC50 (5HT2B receptors; [1]): < 5.00 | Emax (5HT2B receptors; [2]): inactive | pEC50 (5HT2C receptors; [3]): 8.22 | Emax (5HT2C receptors; CHO-K1, read-out: Emax): 95%

O=C1NC[C@@H]2CN(Cc3ccccc3)C[C@H]2c2ccc(-c3nnco3)cc21 (relative stereo) [Example 136, Trans-2-benzyl-8-(1,3,4-oxadiazol-2-yl)-1,2,3,3a,4,5-hexahydrobenzo[e]pyrrolo[3,4-c]azepin-6(10bH)-one]
pEC50 (5HT2B receptors; [1]): < 5.00 | Emax (5HT2B receptors; [2]): inactive | pEC50 (5HT2C receptors; [3]): 5.70 | Emax (5HT2C receptors; CHO-K1, read-out: Emax): 110%
